The values below come from PMC5512541 (Science translational medicine, 2016).

Series [1] concerns ISF Aβ40 and Aβ42. In words: In vivo microdialysis of hippocampal ISF Aβ after γ-secretase inhibitor. Set-up: species or system mouse. The settings on record: APP/PS1 and APP/PS1; nExt1CKO mice, 3-4 months; LY411575 5 mg/kg intraperitoneally; hippocampal microdialysis samples every 60 min for 6 hr; ELISA. For orientation: ELISA stands for enzyme-linked immunosorbent assay.
For series [2] the following is noted: mouse interstitial fluid (ISF); endogenous Aβ; ref [8], [9]; cited from earlier work.
The conditions of series [3]: human cerebrospinal fluid (CSF); endogenous Aβ; ref [8], [9]; cited from earlier work.
Series [4] relates to amyloid pathology. The settings on record: administration in a mouse model of AD; ref [65]; cited from earlier work.

Like-named read-outs stand apart in the source and are kept apart here.

In the case of `C[C@H](NC(=O)[C@@H](O)c1cc(F)cc(F)c1)C(=O)N[C@@H]1C(=O)N(C)c2ccccc2-c2ccccc21` [γ-secretase inhibitor, LY411575], in series [1], the “ISF Aβ40 and Aβ42 concentration after treatment” value was “gradually decreased in a time-dependent manner”.

Consider amyloid-β [Aβ], for which the “half-life in the brain” value in series [2] is 1 to 2 h; in series [3], ~ 8 hours.

As to low-molecular-weight heparin, the “effect on amyloid pathology” value in series [4] was “reduced amyloid pathology”.
